Reference: article PMC5520492, “Inhibition of DNA2 nuclease as a therapeutic strategy targeting replication stress in cancer cells” (Oncogenesis, 2017)
Entries after “also recorded” stand apart in the source; their conditions may differ.

Experiments:
yDna2 = target: T1, yDna2 (Saccharomyces cerevisiae, UniProt P38859); experiment: High-throughput fluorescence nuclease assay with yDna2 (triply labeled (dT)30 ssDNA); format: biochemical, yeast; conditions: yeast Dna2 0.09 nM; substrate 0.1 μM; Figure 3c; read-out: IC50 (yeast Dna2), dose-response in vitro
T1 construct: made in house
Protocol: The screen entailed the use of oligonucleotide (dT)30 having a reporter fluorescent moiety, 6-FAM on the 5′ end, and the dark quenching group, Iowa Black FQ, on the 3′ end. In addition, a second dark quencher ZEN was placed between the 9th and 10th base (Figure 2a). The fluorescence emitted by 6-FAM is quenched by FRET, but it increases when DNA is degraded by Dna2. […] The inhibitory activity of the compounds was determined as a reduction in fluorescent signal compared with the dimethylsulfoxide (DMSO) only control. […] We screened ~50 000 chemical compounds from six different libraries (Supplementary Table S1) to identify chemical inhibitors of the Dna2 nuclease activity. […] The DNA2 nuclease domain is well conserved among eukaryotes, and therefore we reasoned that inhibitors of yDna2 will likely also work with the human counterpart.
Initial screen, it was performed with yDna2.[22] Then, the top candidate compounds were tested on hDNA2. Identical reaction conditions were used for assaying the nuclease activity of yDna2 and hDNA2. […] The reaction buffer was 20 mM HEPES/NaOH, pH 7.5, 60 mM KCl, 1 mM DTT, 100 μg/ml bovine serum albumin and 0.05% Triton X-100. The nuclease assay was initiated by adding MgCl2 (3 mM final concentration). T5 nuclease was assayed in the buffer (50 mM potassium acetate, pH 7.9, 20 mM Tris-acetate, 10 mM magnesium acetate and 1 mM DTT) provided by the vendor (NEB, Ipswich, MA, USA). The concentration of the fluorogenic substrate was 0.1 μM. The optimal amount of yDna2, hDNA2 and T5 nuclease was determined by utilizing the Kaleidagraph software (Reading, PA, USA) to fit the data according to Michaelis Menton Kinetics (V=V0+Vmax*x/(Km+x)). […] The Z’ value was calculated as previously described.[50] Cell proliferation was determined using 4,6-diamidino-2-phenylindole staining followed by high-throughput microscopy in a 384-well plate setup. In brief, cells were fixed with formaldehyde, washed and stained with 4,6-diamidino-2-phenylindole and the number of nuclei in each well counted by automated microscopy. The data were analyzed as described.[51]

hDNA2 = target: T2, hDNA2 (Homo sapiens, UniProt P51530); experiment: ATPase activity of hDNA2 (TLC); format: biochemical; conditions: inhibitor 10 µM, 100 nM hDNA2
T2 construct: made in house
T2 sequence (P51530 1-1060): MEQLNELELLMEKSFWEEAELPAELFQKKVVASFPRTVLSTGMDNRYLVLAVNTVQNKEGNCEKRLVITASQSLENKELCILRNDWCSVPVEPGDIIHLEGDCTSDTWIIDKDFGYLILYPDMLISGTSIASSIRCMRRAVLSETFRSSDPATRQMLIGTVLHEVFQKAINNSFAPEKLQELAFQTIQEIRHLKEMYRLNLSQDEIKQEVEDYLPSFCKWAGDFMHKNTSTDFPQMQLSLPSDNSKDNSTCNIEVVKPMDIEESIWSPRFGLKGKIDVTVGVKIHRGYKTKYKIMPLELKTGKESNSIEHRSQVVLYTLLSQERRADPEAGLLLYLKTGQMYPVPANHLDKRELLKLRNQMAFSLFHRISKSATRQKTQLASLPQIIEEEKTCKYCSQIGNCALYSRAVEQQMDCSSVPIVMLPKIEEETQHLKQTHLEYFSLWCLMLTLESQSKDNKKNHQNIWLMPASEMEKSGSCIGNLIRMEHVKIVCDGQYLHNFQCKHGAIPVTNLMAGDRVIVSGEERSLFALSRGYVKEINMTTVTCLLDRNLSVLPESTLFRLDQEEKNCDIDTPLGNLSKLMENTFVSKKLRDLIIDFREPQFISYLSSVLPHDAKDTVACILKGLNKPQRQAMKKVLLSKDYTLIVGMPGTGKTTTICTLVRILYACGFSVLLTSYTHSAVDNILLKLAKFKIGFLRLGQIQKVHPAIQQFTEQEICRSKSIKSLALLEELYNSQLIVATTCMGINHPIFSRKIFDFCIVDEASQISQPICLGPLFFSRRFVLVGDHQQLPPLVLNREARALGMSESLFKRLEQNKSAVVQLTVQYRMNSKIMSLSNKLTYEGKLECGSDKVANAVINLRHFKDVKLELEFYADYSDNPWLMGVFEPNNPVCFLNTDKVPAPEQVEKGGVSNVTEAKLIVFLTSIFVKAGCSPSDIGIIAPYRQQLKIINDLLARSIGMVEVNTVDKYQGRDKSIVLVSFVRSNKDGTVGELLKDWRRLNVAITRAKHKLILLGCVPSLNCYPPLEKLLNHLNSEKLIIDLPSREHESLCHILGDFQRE
Protocol: Figure S2. […] (a) Analysis of 5’ flap processing by hDNA2 in presence of the compounds at the indicated concentration. DNA2 (2.5 nM) was incubated with the Y DNA substrate (5 nM ends) and the indicated concentration of inhibitor. (b) Plots showing quantitation of the experiments shown in a. Plotted are the average data from three independent experiments with the error bars representing one standard deviation. (c) Analysis of dsDNA unwinding by BLM. BLM (4, 8 and 16 nM), RPA (100 nM) and internally radiolabelled dsDNA (0.5 nM ends) was incubated for 20 min at 37^ºC in presence of either DMSO or NSC-105808 (10 µM) and the products were resolved on a 1% agarose gel. (d) Plots showing quantitation of the experiments shown in c. Plotted are the average data from three independent experiments with the error bars representing one standard deviation. (e) Analysis of the degradation of a 2 kb internally labeled dsDNA (0.5 nM ends) by EXO1 (5 nM) in presence of NSC-105808 (10 µM). (f) Plot showing quantitation of the experiment in e. […] 100 nM hDNA2 was incubated with γ^32P-ATP in the presence of oligonucleotide ssDNA (200 nM) for 20 minutes at 37^ºC in presence of either DMSO or inhibitor (10 µM) and the products were resolved on a TLC plate. (h) Analysis of hDNA2 binding to DNA. […]

T1 sequence (P38859 whole entry): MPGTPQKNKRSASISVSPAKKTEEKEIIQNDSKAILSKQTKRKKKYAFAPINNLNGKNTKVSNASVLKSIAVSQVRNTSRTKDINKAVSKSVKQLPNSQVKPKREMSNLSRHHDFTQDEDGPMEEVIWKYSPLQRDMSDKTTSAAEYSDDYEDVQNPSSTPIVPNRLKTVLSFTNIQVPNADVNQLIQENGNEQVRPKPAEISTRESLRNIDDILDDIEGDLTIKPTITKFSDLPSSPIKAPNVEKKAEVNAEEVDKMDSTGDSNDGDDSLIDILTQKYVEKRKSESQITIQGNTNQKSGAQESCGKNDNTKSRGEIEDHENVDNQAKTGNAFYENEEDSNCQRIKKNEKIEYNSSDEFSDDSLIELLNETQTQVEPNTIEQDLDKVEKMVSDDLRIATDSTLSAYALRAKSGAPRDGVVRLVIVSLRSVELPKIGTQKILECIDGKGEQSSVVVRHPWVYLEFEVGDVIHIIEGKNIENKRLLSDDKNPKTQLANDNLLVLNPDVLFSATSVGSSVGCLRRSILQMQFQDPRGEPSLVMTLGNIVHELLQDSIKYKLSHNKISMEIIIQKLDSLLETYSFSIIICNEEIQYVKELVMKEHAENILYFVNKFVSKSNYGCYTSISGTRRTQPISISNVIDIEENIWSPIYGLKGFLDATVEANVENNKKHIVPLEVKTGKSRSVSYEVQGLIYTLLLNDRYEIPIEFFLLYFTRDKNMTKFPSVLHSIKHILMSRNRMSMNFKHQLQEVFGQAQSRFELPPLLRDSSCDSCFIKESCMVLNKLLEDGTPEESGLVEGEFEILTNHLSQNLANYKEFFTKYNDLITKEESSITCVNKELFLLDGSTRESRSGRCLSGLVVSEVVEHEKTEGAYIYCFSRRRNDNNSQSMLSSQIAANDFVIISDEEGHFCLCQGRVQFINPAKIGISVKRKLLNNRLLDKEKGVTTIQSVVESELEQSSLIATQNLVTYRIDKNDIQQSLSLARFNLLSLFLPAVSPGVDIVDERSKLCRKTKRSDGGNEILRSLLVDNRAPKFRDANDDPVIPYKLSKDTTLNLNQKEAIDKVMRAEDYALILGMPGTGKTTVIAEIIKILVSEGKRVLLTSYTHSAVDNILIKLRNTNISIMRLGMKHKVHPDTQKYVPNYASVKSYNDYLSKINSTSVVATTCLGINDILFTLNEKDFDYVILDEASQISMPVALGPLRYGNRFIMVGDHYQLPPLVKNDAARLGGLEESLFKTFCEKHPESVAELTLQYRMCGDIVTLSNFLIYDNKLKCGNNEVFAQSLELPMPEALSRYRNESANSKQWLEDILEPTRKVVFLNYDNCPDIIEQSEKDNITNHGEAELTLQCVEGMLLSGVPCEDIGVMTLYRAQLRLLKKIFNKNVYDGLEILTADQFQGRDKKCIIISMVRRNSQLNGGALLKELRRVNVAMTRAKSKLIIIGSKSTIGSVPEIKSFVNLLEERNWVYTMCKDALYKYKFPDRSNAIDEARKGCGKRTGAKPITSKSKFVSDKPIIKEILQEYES

Structure (SMILES) | IC50 (yDna2) | Effect on ATPase activity of DNA2 (hDNA2)
NC1=C(Br)C(=O)c2ncccc2C1=O [NSC-105808, 6-amino-7-bromoquinoline-5,8-dione] | 2000 nM | do not affect; also recorded: no effect
O=C1C(=O)c2cc([N+](=O)[O-])ccc2-c2ccccc21 [NSC-5195242, 2-nitrophenanthrene-9,10-dione] | 3900 nM | do not affect
